Data: patent US20230381163A1, “DABIGATRAN COMPOSITIONS AND METHODS OF TREATING AGE-RELATED MACULAR DEGENERATION” (The United States Government As Represented By The …, priority 2022, published 2023)
Entries after “also recorded” stand apart in the source; their conditions may differ.

What was measured:
[1] = system: choroidal neovascularization (CNV) lesions; assay: Laser-induced CNV lesion size by OCT in mice fed dabigatran chow; format: in vivo, C57BL/6J mice
Description: Mouse model of choroidal neovascularization (CNV): Choroidal neovascularization. C57BL/6J mice (males and females) from the same colony, to guarantee identical microbiome ([…] al., 2016), were recruited to the study at 3 months of age. Argon laser photocoagulation (532 nm, 100 μm spot size, 0.1 s duration, 100 mW) was used to generate 4 laser spots around the optic nerve of each eye (Rohrer et al., 2009), utilizing bubble formation at the site of the laser burn as the inclusion criteria for successful Bruch's membrane rupture (Nozaki et al., 2006). Dabigatran exposure. Mice were fed standard chow fortified with dabigatran etexilate (10 […] of chow; Boehringer Ingelheim). Mice were either fed dabigatran chow during the angiogenesis period of CNV (starting 2 days prior to CNV induction through day 6 when the tissues were collected), or during the wound healing period (starting after the OCT analysis to ensure CNV growth on day 5 through day 23). Optical Coherence Tomography (OCT) analysis. OCT was used to quantify CNV lesion size on day 5 post laser treatment (Schnabolk, G., et al. (2014). Exp Eye Res 129, 18-23; Schnabolk, G., et al. (2015). Invest Ophthalmol Vis Sci; and Coughlin, B., et al. (2016). Sci Rep 6, 23794), or in weekly intervals to document recovery from fibrosis (Parsons, N., et al. (2019). Mol Immunol 108, 8-12) using an SD-OCT Bioptigen® Spectral Domain Ophthalmic Imaging System (Bioptigen Inc., Durham NC). Mice were anesthetized prior to imaging, eyes kept hydrated with normal saline, and body temperature was carefully monitored to prevent anesthesia-induced cataracts. The methods for imaging and analysis have been described (Schnabolk, G., et al. (2014). Exp Eye Res 129, 18-23; Schnabolk, G., et al. (2015). Invest Ophthalmol Vis Sci; Coughlin, B., et al. (2016). Sci Rep 6, 23794; and Parsons, N., et al. (2019). Mol Immunol 108, 8-). Based on the size of the individual pixels (1.6×1.6 μm), the lesion sizes were calculated.

thrombin [2] = target: thrombin (Mus musculus, UniProt P19221)
Procedure: Thrombin activity assay. Thrombin activity was measured according to a methodology described by Ludwicka with modifications (Ohba, T., et al. (1994). Am J Respir Cell Mol Biol 10, 405-412). Thrombin specific peptide Boc-Val-Pro-Arg-7-amido-4-methylcoumarin hydrochloride (Sigma-Aldrich) was reconstituted in molecular grade ice-cold H2O at a concentration of 0.5 mg/ml and used as substrate.
It was test whether dabigatran would alter the course of angiogenesis or repair, by feeding animals with dabigatran chow during the two different phases.

[3] = system: VEGF secretion in ARPE-19 cells; assay: VEGF secretion into apical supernatant of ARPE-19 monolayers (ELISA); format: cell-based, human; conditions: dabigatran, thrombin-treated cells
Procedure: Cell culture experiments: Cells. […] Frontiers in Aging Neuroscience 9).
VEGF ELISA. VEGF in the supernatant was measured using the Quantikine® Human VEGF Immunoassay (R & D System) according to the manufacturer's protocol. In brief, 200 μl of standard/sample was mixed with 50 μl of assay diluent and added to the plate precoated with the capture antibody. After washing, 200 μl of the VEGF detection antibody (polyclonal antibody specific for human VEGF conjugated to horseradish peroxidase) was added, followed by freshly prepared substrate reagents (stabilized hydrogen peroxide and tetramethylbenzidine). The reaction was terminated using 50 μl of stop solution and absorbance was measured at λ1 450 nm with wavelength correction λ2 at 540 nm. VEGF concentration of samples were calculated comparing the absorbance with the standards and converted into fold change considering the serum-free condition as 1 in the scale.

complement component C3 = assay: Thrombin-mediated C3 cleavage in apical supernatants of ARPE-19 cells (western blot); format: cell-based, human; conditions: 10 μM
Procedure: Second, it was tested whether thrombin can cleave complement components (Huber-Lang, M., et al. (2006). Nat Med 12, 682-687; and Krisinger, M. J., et al. (2012). Blood 120, 1717-1725), specifically C3 and C5, producing cleavage products potentially different from those produced by classical convertases. To test the effects of thrombin on complement cleavage, the apical supernatants of treated ARPE-19 cell monolayers were analyzed by western blotting. Cleavage of C3α was evaluated using an antibody specific for C3a (FIG. 5A, left-hand blot). The C3a antibody detected C3, the C3α band as well as other fragments containing C3a. Thrombin caused a concentration dependent cleavage of complement component C3 (˜190 kDa), caused reduction of the 120 kDa C3a band and generation of a new 80 kDa fragment. Fragments at 32 kDa and 9-10 kDa with higher doses of thrombin treatment (FIG. 5A, 10 U/mL) were also observed. The 9-10 kDa band ran at the same molecular weight as purified C3a (FIG. 11). The reduction of the 120 kDa fragment was correlated with the generation of the 80 kDa fragment (FIG. 5B). The loss of the 120 kDa fragment was prevented by either dabigatran (10 μM) or the C3 inhibitor compstatin (100 μM), which inhibits complement both on cell membranes as well as in fluid phase, but not by TT30 (10 μM), which is an inhibitor that prevents membrane-bound AP activation (FIG. 5C). […]

CTGF = CTGF levels in RPE/choroid of CNV mice (western blot); format: in vivo, mouse; conditions: end of repair period (23 days), P<0.01
Description: Pathway analysis in CNV. Based on the results in cells, an analysis in animals followed, focusing on VEGF levels in the RPE/choroid, complemented by CTGF analysis and complement activation (C3d production and binding). RPE/choroid samples were collected at the end of the angiogenesis experiment (day 6) and after the final OCT analysis in the repair experiment (day 23) and compared to naive controls (no CNV and no dabigatran treatment).

thrombin [4] = target: thrombin (Homo sapiens, UniProt P00734); assay: Thrombin activity in cell-free system; conditions: 10 μM, thrombin 10-500 U/mL
Procedure: Thrombin activity in cell-free system. To measure the level of active thrombin in cell-free system, known concentrations of thrombin were prepared in 100 μl of assay buffer (50 mM Tris, 100 mM NaCl, and 0.01% BSA; pH 7.5), subsequently 50 μl of thrombin substrate was added and incubated at 37° C. Fluorescence was measured at 405 nm using the Biotek Synergy HT Microplate Reader and thrombin activity was determined by extrapolation from a thrombin standard curve. Effects of inhibitors were tested by pre-incubating the inhibitors with thrombin, before substrate incorporation.

[5] = system: CTGF expression in ARPE-19 cells; assay: Thrombin-induced CTGF expression in ARPE-19 cell lysates (western blot); conditions: dabigatran 10 μM, thrombin 1 U/mL
Procedure: Cell culture experiments: Cells. Human ARPE-19 (ATCC® CRL-2302™; American Type Culture Collection, Manassas VA) cells were cultured in DMEM cell culture media (Gibco/ThermoFisher Scientific) containing high glucose DMEM with D-glucose (4.5 g/L), L-glutamine, sodium pyruvate (110 mg/L), Penicillin and Streptomycin (1×) and 10% of FBS. Cells (<passage 10 after purchase) were expanded in T75 cell culture flasks at 37° C., in the presence of 5% CO2. Confluent cells were trypsinized with 0.05% trypsin (Gibco), and equal numbers of cells were seeded on 6-well transwell filters/plate (Costar). […] Integrity of the cell monolayer was assessed by Transepithelial resistance (TER) measurements using an EVOM volt-ohmmeter (World Precision Instruments) four weeks after plating. RPE monolayers with a stable TER repeatedly measured as ˜40-45 S2 cm 2 were used for these experiments.
Treatments. Prior to each experiment, the cell monolayer was washed with serum-free medium (SFM) and maintained in SFM for 24 hours. […] Treatments were performed on the apical side of the transwell membrane, which represents the retinal side of the RPE in vivo. Some of the cells were treated with thrombin (EMD Millipore Corp), complement components C3a, C5a (Complement Technology), thrombin agonist PAR1-AP (Sigma-Aldrich; amino acid sequence SFLLRN (SEQ ID NO: 1)), thrombin inhibitor dabigatran etexilate (Sigma-Aldrich), C3 inhibitor compstatin (R&D Systems), AP inhibitor TT30 (Alexion Therapeutics), a protease inhibitor alpha1-antitrypsin (Sigma-Aldrich), and the thrombin receptor proteinase activated receptor 1 inhibitor SCH 79797 (Sigma-Aldrich). Treatments were performed 60 min prior to the addition of thrombin. Cell culture supernatant and lysate were collected after specific time points or after 24 hrs of treatment and stored at −20° C. for later use.
Western blotting. […] Cell lysates were collected in RIPA cell lysis buffer containing 150 mM NaCl, 1.0% IGEPAL® CA-630, 0.5% sodium deoxycholate, 0.1% SDS, 50 mM Tris (pH 8.0) (Sigma-Aldrich) in presence of 1×protease inhibitor (Sigma-Aldrich). Equal amount of each samples were loaded on 4-20% Criterion™ TGX™ precast gels (Bio-Rad Laboratories, Inc.) (Annamalai, B., et al. (2020). Invest Ophthalmol Vis Sci 61, 45). Proteins were transferred to a nitrocellulose membrane and incubated in primary antibody followed by appropriate secondary antibodies coupled to peroxidase, followed by band development and detection using Clarity™ Western ECL blotting substrate (Bio-Rad Laboratories, Inc.) and chemiluminescent detection. Protein bands were scanned and densities quantified using ImageJ software. The following antibodies were used: C3a (1:1000; Complement Technology), C5a (1:1000; Abcam), connective tissue growth factor/CTGF (1:1000; Abcam), C3d anti-C3d (clone 11, 1:1000; generation of the antibody is described in (Thurman, J. M., et al. (2013). J Clin Invest 123, 2218-2230)), VEGF (1:1000, Santa Cruz Biotechnology, Inc.), β-actin (1:2000; Cell Signaling Technology) and concentrations selected based on the data sheet recommendations.
ARPE-19 cell monolayers were treated with thrombin (0.5-10 U/ml) and cell lysates were collected and analyzed for CTGF levels at 4 hrs post treatment by western blotting.

In the case of `CCCCCCOC(=O)NC(=N)c1ccc(NCc2nc3cc(C(=O)N(CCC(=O)OCC)c4ccccn4)ccc3n2C)cc1`, the “reduction of CNV lesion sizes” value ([1]; dabigatran from 2 days prior to CNV induction through angiogenesis phase, OCT day 5, insignificant, P=0.2) is reported as roughly 15%, the “CNV lesion size at final time point” value ([1]; dabigatran from day 5 through repair phase, day 23, P<0.02) is reported as “significantly smaller lesions” and the “CNV lesion response over time (repair)” value ([1]; repair phase days 5-23, repeated measure ANOVA P<0.0001) is reported as “significant effect of treatment; also recorded: acceleration of repair”. For the same molecule, the “reduction of thrombin activity in retina/RPE/choroid tissues” value (thrombin [2]; mice on dabigatran chow vs control mice, P=0.04) was roughly 10%, the “reduction of thrombin activity in serum” value (thrombin [2]; mice on dabigatran chow ˜10 mg/kg per day vs control mice, P=0.003) was roughly 35% and the “thrombin activity in retina/RPE/choroid tissues” value (thrombin [2]; mice on dabigatran chow, control: 100±3.1) was 91.1±2.6. The “thrombin activity in serum” value (thrombin [2]; mice on dabigatran chow, control: 100±7.6) was 65.4±5.1, the “reduction of thrombin-induced VEGF content” value [3] was roughly 35% and the “effect on thrombin-mediated loss of the 120 kDa C3 fragment” value (complement component C3) was “prevented”. The “effect on CTGF levels in RPE/choroid” value (CTGF) was “significantly reduced”, the “effect on thrombin enzyme activity” value (thrombin [4]) was “significantly reduce” and the “reduction of thrombin-induced CTGF expression” value [5] was 3.2 fold.
